Data from patent US9596857B2, “Insecticidal and miticidal mixtures of bifenthrin and cyano-pyrethroids” (FMC Corporation, priority 2005, dated 2017).

Tests used:
Format in all cases: in vivo
[1] = test system: Colorado potato beetle (Leptinotarsa decemlineata [Say]); assay: Foliar leaf-dip test against adult Colorado potato beetle on tomato plants; settings: technical, 72 h
Protocol: (§1) Candidate insecticide compositions were evaluated for activity in foliar evaluations against tobacco budworm (Heliothis virescens [Fabricius]), Colorado potato beetle (Leptinotarsa decemlineata [Say]), corn earworm (Helicoverpa zea [Boddie]), cotton aphid (Aphis gossypii [Glover]) and twospotted spider mite (Tetranychus urticae [Koch]). Each test included controls in which the formulation or test solution minus the active ingredients were applied.
In tests against adult Colorado potato beetle, the leaves of 6-8 inch tall tomato plants (Lycopersicon lycoper) were dipped into the test solutions of the test formulations to provide application rates as high as 1000 ppm of the active ingredients. The test formulations were dissolved in distilled water containing 10% acetone and 0.25% of a non-ionic detergent [an octylphenolpoly(ethyleneglycolether)x, available from Roche Applied Science as Triton X-100] to the proper concentrations. The treated plants were transferred to a hood where they were kept until the leaves had dried. For tests in which the active ingredients were not formulated, i.e. the technical active ingredient was used; a stock solution of the test compound was made. For example, a 100 ppm stock solution may be made by dissolving 4 milligrams of the test compound in 4 mL of acetone and adding the solution to 36 mL of an aqueous Triton X-100 solution (one drop of Triton X-100 dissolved in 100 mL of distilled water). Further dilutions can be made by adding distilled water containing 10% acetone and 0.25% of Triton X-100.
The treated tomato plants were removed from their pots by cutting the stems just above the soil line. Each excised plant was placed into an individual 8-ounce paper cup. Ten adult Colorado potato beetles were placed into each paper cup, taking care not to cause injury. An opaque plastic lid was placed on each cup, for a 72 hour exposure period and held at 25° C., 50% relative humidity with a photo-period of 12 hours light and 12 hours dark. At the end of the 72 hour exposure period, the cups were opened, and the numbers of dead and live insects were counted. Using the insect counts, the activity of the test chemical was expressed in percent control. Percent control is derived from the total number of dead insects (TD) compared to the total number of insects (TI) in the test: […]

[2] = test system: corn earworm (Helicoverpa zea [Boddie]); assay: Cotton leaf-disc dip test against corn earworm; settings: technical, 96 h
Protocol: as §1
In tests against corn earworm, one inch diameter leaf discs cut from cotton plant leaves (Gossypium hirsutum) were dipped into the test solutions of the test formulations to provide application rates as high as 1000 ppm of the active ingredients. The test formulations were dissolved in distilled water containing 10% acetone and 0.25% of a non-ionic detergent [an octylphenolpoly(ethyleneglycolether)x, available from Roche Applied Science as Triton X-100] to the proper concentrations. Cotton wicks, 0.5 inch diameter by 2 inches long, were soaked with distilled water and placed into the wells of a 32 well rearing tray (available as Rearing Tray Bio-Fit 32, from C-D International, Pittman, N.J.), one wick per well. Treated leaf discs were placed on top of the cotton wicks, one leaf disc per wick, and the rearing tray was transferred to a hood where they were kept until the leaf discs had dried. Each disc was infested with 1 late second to early third instar corn earworm, replicated sixteen times per rate of application, and a lid was placed on the rearing tray. The rearing trays were held in a growth chamber for 96 hours at 25° C., 50% relative humidity and a photoperiod of 12 hours light/12 hours dark. For tests in which the active ingredients were not formulated, i.e. the technical active ingredient was used; a stock solution of the test compound was made. For example, a 100 ppm stock solution may be made by dissolving 4 milligrams of the test compound in 4 mL of acetone and adding the solution to 36 mL of an aqueous Triton X-100 solution (one drop of Triton X-100 dissolved in 100 mL of distilled water). Further dilutions can be made by adding distilled water containing 10% acetone and 0.25% of Triton X-100.
(§2) At the end of the 96 hour exposure period, the rearing tray was opened, and the numbers of dead and live insects were counted. […] Using the insect counts, the activity of the test chemical was expressed in percent control. Percent control is derived from the total number of dead insects (TD) compared to the total number of insects (TI) in the test: […]

[3] = test system: twospotted spider mite (Tetranychus urticae [Koch]); assay: Foliar leaf-dip test against twospotted spider mite on pinto bean plants; settings: technical, 96 h
Protocol: as §1
In tests against twospotted spider mites, the leaves of potted 3 to 4 inch tall pinto bean plants (Phaseolus vulgaris) were infested with about 50 to 75 adult twospotted spider mites by placing leaf cuttings from a twospotted spider mite colony host pinto bean plant on the upper surface of the test plant leaves. After about 1 hour the newly infested pinto bean leaves were dipped into the test solutions of the test formulations to provide application rates as high as 1000 ppm of the active ingredients. The test formulations were dissolved in, and diluted as necessary, with distilled water containing 10% acetone and 0.25% of a non-ionic detergent [an octylphenolpoly(ethyleneglycolether)x, available from Roche Applied Science as Triton X-100] to the proper concentrations. The treated plants were transferred to a hood where they were kept until the leaves had dried. Once dry, the potted plants were placed into a tray containing at least one inch of water. The plants were spaced far enough apart to prevent the mites from moving between plants. The trays were held in a growth chamber for 96 hours at 25° C., 50% relative humidity and a photoperiod of 14 hours light/10 hours dark. For tests in which the active ingredients were not formulated, i.e. the technical active ingredient was used; a stock solution of the test compound was made. For example, a 100 ppm stock solution may be made by dissolving 4 milligrams of the test compound in 4 mL of acetone and adding the solution to 36 mL of an aqueous Triton X-100 solution (one drop of Triton X-100 dissolved in 100 mL of distilled water). Further dilutions can be made by adding distilled water containing 10% acetone and 0.25% of Triton X-100.
as §2, with “period” for “period, the rearing tray was opened, and”

[4] = test system: cotton aphid (Aphis gossypii [Glover]); assay: Foliar leaf-dip test against cotton aphid on tomato plants; settings: technical, 72 h
Protocol: as §1
In tests against cotton aphid, the leaves of 6 to 8 inch tall tomato plants (Lycopersicon lycoper) were infested with about 50 cotton aphids by placing leaf cuttings from a cotton aphid colony host tomato plant. After about 12 hours the newly infested tomato leaves were dipped into the test solutions of the test formulations to provide application rates as high as 1000 ppm of the active ingredients. The test formulations were dissolved in, and diluted as necessary, with distilled water containing 10% acetone and 0.25% of a non-ionic detergent [an octylphenolpoly(ethyleneglycolether)x, available from Roche Applied Science as Triton X-1001 to the proper concentrations. After treatment, a square of parafilm was placed around the stem of each test plant, covering the soil of each pot in order to catch dead aphids that fall from the leaves. The treated plants were transferred to a hood where they were kept until the leaves had dried. Once dry, the potted plants were placed into a tray containing at least one inch of water. The plants were spaced far enough apart to prevent the aphids from moving between plants. The trays were held in a growth chamber for 72 hours at 25° C., 50% relative humidity and a photoperiod of 14 hours light/10 hours dark. For tests in which the active ingredients were not formulated, i.e. the technical active ingredient was used; a stock solution of the test compound was made. For example, a 100 ppm stock solution may be made by dissolving 4 milligrams of the test compound in 4 mL of acetone and adding the solution to 36 mL of an aqueous Triton X-100 solution (one drop of Triton X-100 dissolved in 100 mL of distilled water). Further dilutions can be made by adding distilled water containing 10% acetone and 0.25% of Triton X-100.
At the end of the 72 hour exposure period the numbers of dead and live insects were counted. Insects were classified as “dead” if they were off-color or brown and desiccated. Using the insect counts, the activity of the test chemical was expressed in percent control. Percent control is derived from the total number of dead insects (TD) compared to the total number of insects (TI) in the test: […]

[5] = cyano-pyrethroid 0.3 ppm alone (bifenthrin 0 ppm)
[6] = cyano-pyrethroid 1.0 ppm alone (bifenthrin 0 ppm)
[7] = cyano-pyrethroid 3.0 ppm alone (bifenthrin 0 ppm)
[8] = cyano-pyrethroid 10.0 ppm alone (bifenthrin 0 ppm)
[9] = cyano-pyrethroid 0.3 ppm alone (bifenthrin 0.0 ppm)
[10] = cyano-pyrethroid 1.0 ppm alone (bifenthrin 0.0 ppm)
[11] = cyano-pyrethroid 3.0 ppm alone (bifenthrin 0.0 ppm)
[12] = cyano-pyrethroid 10.0 ppm alone (bifenthrin 0.0 ppm)
[13] = cyano-pyrethroid 30.0 ppm alone (bifenthrin 0 ppm)
[14] = cyano-pyrethroid 60.0 ppm alone (bifenthrin 0 ppm)
[15] = cyano-pyrethroid 100.0 ppm alone (bifenthrin 0 ppm)
[16] = cyano-pyrethroid 200.0 ppm alone (bifenthrin 0 ppm)

For `CC1(C)C(C=C(Cl)Cl)C1C(=O)OC(C#N)c1ccc(F)c(Oc2ccccc2)c1` (racemic) [cyfluthrin, (RS)-α-cyano-4-fluoro-3-phenoxybenzyl (1RS)-cis-trans-3-(2,2-dichlorovinyl)-2,2-dimethylcyclopropanecarboxylate], the “% Mortality Adult Colorado Potato Beetle” value [1, 5] was 10%, the “% Mortality Adult Colorado Potato Beetle” value [1, 6] was 70% and the “% Mortality Adult Colorado Potato Beetle” value [1, 7] was 80%. The “% Mortality Adult Colorado Potato Beetle” value [1, 8] was 100%, the “% Mortality Corn Earworm” value [2, 9] was 13% and the “% Mortality Corn Earworm” value [2, 10] was 69%. For the same compound, the “% Mortality Corn Earworm” value [2, 11] was 100%, the “% Mortality Corn Earworm” value [2, 12] was 100% and the “% Mortality Twospotted Spider Mite” value [3, 8] was 14%. The “% Mortality Twospotted Spider Mite” value [3, 13] was 17%, the “% Mortality Twospotted Spider Mite” value [3, 14] was 23% and the “% Mortality Twospotted Spider Mite” value [3, 15] was 11%. For the same compound, the “% Mortality Cotton Aphid” value [4, 8] was 4%, the “% Mortality Cotton Aphid” value [4, 13] was 6% and the “% Mortality Cotton Aphid” value [4, 15] was 9%.

`CC1(C)[C@H](C(=O)O[C@H](C#N)c2cccc(Oc3ccccc3)c2)[C@@H]1/C=C(\Cl)C(F)(F)F` (racemic) [lambda-cyhalothrin, (S)-α-cyano-3-phenoxybenzyl-(Z)-(1R)-cis-3-(2-chloro-3,3,3-trifluoropropenyl)-2,2-dimethylcyclopropanecarboxylate and (R)-α-cyano-3-phenoxybenzyl-(Z)-(1S)-cis-3-(2-chloro-3,3,3-trifluoropropenyl)-2,2-dimethylcyclopropanecarboxylate] was tested, and the “% Mortality Adult Colorado Potato Beetle” value [1, 5] was 30%, the “% Mortality Adult Colorado Potato Beetle” value [1, 6] was 100% and the “% Mortality Adult Colorado Potato Beetle” value [1, 7] was 100%. For the same compound, the “% Mortality Adult Colorado Potato Beetle” value [1, 8] was 100%, the “% Mortality Corn Earworm” value [2, 9] was 6% and the “% Mortality Corn Earworm” value [2, 10] was 31%. The “% Mortality Corn Earworm” value [2, 11] was 56%, the “% Mortality Corn Earworm” value [2, 12] was 100% and the “% Mortality Twospotted Spider Mite” value [3, 8] was 16%. The “% Mortality Twospotted Spider Mite” value [3, 13] was 19%, the “% Mortality Twospotted Spider Mite” value [3, 14] was 55% and the “% Mortality Twospotted Spider Mite” value [3, 15] was 39%. For the same compound, the “% Mortality Cotton Aphid” value [4, 8] was 11%, the “% Mortality Cotton Aphid” value [4, 13] was 11% and the “% Mortality Cotton Aphid” value [4, 15] was 10%.

With `CC1(C)[C@H](C(=O)O[C@H](C#N)c2cccc(Oc3ccccc3)c2)[C@@H]1C=C(Br)Br` [delta-methrin, (S)-α-cyano-3-phenoxybenzyl (1R)-cis-3-(2,2-dibromovinyl)-2,2-dimethylcyclopropanecarboxylate] the “% Mortality Adult Colorado Potato Beetle” value [1, 5] was 0%, the “% Mortality Adult Colorado Potato Beetle” value [1, 6] was 30% and the “% Mortality Adult Colorado Potato Beetle” value [1, 7] was 90%. The “% Mortality Adult Colorado Potato Beetle” value [1, 8] was 100%, the “% Mortality Corn Earworm” value [2, 9] was 6% and the “% Mortality Corn Earworm” value [2, 10] was 50%. For the same compound, the “% Mortality Corn Earworm” value [2, 11] was 94%, the “% Mortality Corn Earworm” value [2, 12] was 100% and the “% Mortality Twospotted Spider Mite” value [3, 8] was 3%. The “% Mortality Twospotted Spider Mite” value [3, 13] was 83%, the “% Mortality Twospotted Spider Mite” value [3, 15] was 26% and the “% Mortality Twospotted Spider Mite” value [3, 16] was 16%. The “% Mortality Cotton Aphid” value [4, 13] was 7%, the “% Mortality Cotton Aphid” value [4, 15] was 8% and the “% Mortality Cotton Aphid” value [4, 16] was 19%.

For `CC(C)[C@H](C(=O)O[C@H](C#N)c1cccc(Oc2ccccc2)c1)c1ccc(Cl)cc1` [esfenvalerate, (S)-α-cyano-3-phenoxybenzyl (S)-2-(4-chlorophenyl)-3-methylbutyrate], the “% Mortality Adult Colorado Potato Beetle” value [1, 5] was 0%, the “% Mortality Adult Colorado Potato Beetle” value [1, 6] was 0% and the “% Mortality Adult Colorado Potato Beetle” value [1, 7] was 5%. The “% Mortality Adult Colorado Potato Beetle” value [1, 8] was 95%, the “% Mortality Corn Earworm” value [2, 9] was 0% and the “% Mortality Corn Earworm” value [2, 10] was 0%. For the same compound, the “% Mortality Corn Earworm” value [2, 11] was 13%, the “% Mortality Corn Earworm” value [2, 12] was 50% and the “% Mortality Twospotted Spider Mite” value [3, 8] was 21%. For the same compound, the “% Mortality Twospotted Spider Mite” value [3, 13] was 25%, the “% Mortality Twospotted Spider Mite” value [3, 15] was 71% and the “% Mortality Twospotted Spider Mite” value [3, 16] was 91%. The “% Mortality Cotton Aphid” value [4, 13] was 38%, the “% Mortality Cotton Aphid” value [4, 15] was 14% and the “% Mortality Cotton Aphid” value [4, 16] was 15%.
